From PubChem BioAssay AID1259407 (Chemical Carcinogenesis Research Information System (CCRIS), 2018)
The source made the active and inactive calls. The rule behind the calls is not given here.

Tested on: CCRIS mutagenicity, Ames/micronucleus/aberration tests
Experiment: CCRIS mutagenicity studies
[1] = Test System: AMES SALMONELLA TYPHIMURIUM, Strain/Indicator: TA98, Metabolic Activation: NONE, Method: STANDARD PLATE
[2] = Test System: AMES SALMONELLA TYPHIMURIUM, Strain/Indicator: TA98, Metabolic Activation: RAT, LIVER, S-9, AROCLOR 1254, Method: STANDARD PLATE
[3] = Test System: AMES SALMONELLA TYPHIMURIUM, Strain/Indicator: TA100, Metabolic Activation: NONE, Method: STANDARD PLATE
[4] = Test System: AMES SALMONELLA TYPHIMURIUM, Strain/Indicator: TA100, Metabolic Activation: RAT, LIVER, S-9, AROCLOR 1254, Method: STANDARD PLATE

Structure (SMILES): O=c1[nH]c2ccccc2o1
- mutagenic call (Test System: AMES SALMONELLA TYPHIMURIUM, Strain/Indicator: TA98, Metabolic Activation: HAMSTER, LIVER, S-9, AROCLOR 1254, Method: STANDARD PLATE): inactive; negative
- mutagenic call [1]: inactive; negative
- mutagenic call [2]: inactive; negative
- mutagenic call (Test System: AMES SALMONELLA TYPHIMURIUM, Strain/Indicator: TA100, Metabolic Activation: HAMSTER, LIVER, S-9, AROCLOR 1254, Method: STANDARD PLATE): inactive; negative
- mutagenic call [3]: inactive; negative
- mutagenic call [4]: inactive; negative
- mutagenic call (Test System: AMES SALMONELLA TYPHIMURIUM, Strain/Indicator: TA1535, Metabolic Activation: HAMSTER, LIVER, S-9, AROCLOR 1254, Method: STANDARD PLATE): inactive; negative
- mutagenic call (Test System: AMES SALMONELLA TYPHIMURIUM, Strain/Indicator: TA1535, Metabolic Activation: NONE, Method: STANDARD PLATE): inactive; negative
- mutagenic call (Test System: AMES SALMONELLA TYPHIMURIUM, Strain/Indicator: TA1535, Metabolic Activation: RAT, LIVER, S-9, AROCLOR 1254, Method: STANDARD PLATE): inactive; negative
- mutagenic call (Test System: AMES SALMONELLA TYPHIMURIUM, Strain/Indicator: TA1537, Metabolic Activation: HAMSTER, LIVER, S-9, AROCLOR 1254, Method: STANDARD PLATE): inactive; negative
- mutagenic call (Test System: AMES SALMONELLA TYPHIMURIUM, Strain/Indicator: TA1537, Metabolic Activation: NONE, Method: STANDARD PLATE): inactive; negative
- mutagenic call (Test System: AMES SALMONELLA TYPHIMURIUM, Strain/Indicator: TA1537, Metabolic Activation: RAT, LIVER, S-9, AROCLOR 1254, Method: STANDARD PLATE): inactive; negative
- mutagenic call (Test System: AMES SALMONELLA TYPHIMURIUM, Strain/Indicator: TA1538, Metabolic Activation: HAMSTER, LIVER, S-9, AROCLOR 1254, Method: STANDARD PLATE): inactive; negative
- mutagenic call (Test System: AMES SALMONELLA TYPHIMURIUM, Strain/Indicator: TA1538, Metabolic Activation: NONE, Method: STANDARD PLATE): inactive; negative
- mutagenic call (Test System: AMES SALMONELLA TYPHIMURIUM, Strain/Indicator: TA1538, Metabolic Activation: RAT, LIVER, S-9, AROCLOR 1254, Method: STANDARD PLATE): inactive; negative
- mutagenic call (Test System: MOUSE LYMPHOMA, Strain/Indicator: L5178Y (TK+/TK-), Metabolic Activation: NONE, Method: SUSPENSION/PLATE): active; positive. reevaluation of results: equivocal
- mutagenic call (Test System: MOUSE LYMPHOMA, Strain/Indicator: L5178Y (TK+/TK-), Metabolic Activation: RAT, LIVER, S-9, AROCLOR 1254, Method: SUSPENSION/PLATE): inactive; negative. reevaluation of results: negative

Structure (SMILES): CNCCN(Cc1ccc(OC)cc1)c1ccccn1
- mutagenic call (Test System: AMES SALMONELLA TYPHIMURIUM, Strain/Indicator: TA97, Metabolic Activation: NONE, Method: STANDARD PLATE): inactive; negative
- mutagenic call (Test System: AMES SALMONELLA TYPHIMURIUM, Strain/Indicator: TA97, Metabolic Activation: RAT, LIVER, S-9, AROCLOR 1254, Method: STANDARD PLATE): inactive; negative
- mutagenic call [1]: inactive; negative
- mutagenic call [2]: inactive; negative
- mutagenic call [3]: inactive; negative
- mutagenic call [4]: inactive; negative
- mutagenic call (Test System: AMES SALMONELLA TYPHIMURIUM, Strain/Indicator: TA102, Metabolic Activation: NONE, Method: STANDARD PLATE): inactive; negative
- mutagenic call (Test System: AMES SALMONELLA TYPHIMURIUM, Strain/Indicator: TA102, Metabolic Activation: RAT, LIVER, S-9, AROCLOR 1254, Method: STANDARD PLATE): inactive; negative

Structure (SMILES): Oc1cc(Cl)ccc1Oc1ccc(Cl)cc1Cl
- mutagenic call (End Point: In vitro chromosomal aberrations, Test System: Chinese hamster ovary strain K1-BH4 cells, Metabolic Activation: None): inactive; negative
- mutagenic call (End Point: In vitro chromosomal aberrations, Test System: Chinese hamster ovary strain K1-BH4 cells, Metabolic Activation: S-9): inactive; negative
- mutagenic call (End Point: In vivo chromosomal aberrations, Test System: Bone marrow, Species: Rat, Strain/Sex: Wistar/Female, Route: Gavage): inactive; negative
- mutagenic call (End Point: In vivo chromosomal aberrations, Test System: Bone marrow, Species: Rat, Strain/Sex: Wistar/Male, Route: Gavage): inactive; negative
- mutagenic call (End Point: In vivo micronucleus, Test System: Bone marrow, Species: Mouse, Strain/Sex: CD-1 SPF Swiss albino, Route: Gavage): inactive; negative
- mutagenic call (Test System: Ames Salmonella typhimurium, Strain/Indicator: TA98, Metabolic Activation: None, Method: Preincubation): inactive; negative
- mutagenic call (Test System: Ames Salmonella typhimurium, Strain/Indicator: TA98, Metabolic Activation: None, Method: Standard Plate): inactive; negative
- mutagenic call (Test System: Ames Salmonella typhimurium, Strain/Indicator: TA98, Metabolic Activation: S-9, Method: Preincubation): inactive; negative
- mutagenic call (Test System: Ames Salmonella typhimurium, Strain/Indicator: TA98, Metabolic Activation: S-9, Method: Standard Plate): inactive; negative
- mutagenic call (Test System: Ames Salmonella typhimurium, Strain/Indicator: TA100, Metabolic Activation: None, Method: Preincubation): inactive; negative
- mutagenic call (Test System: Ames Salmonella typhimurium, Strain/Indicator: TA100, Metabolic Activation: None, Method: Standard Plate): inactive; negative
- mutagenic call (Test System: Ames Salmonella typhimurium, Strain/Indicator: TA100, Metabolic Activation: S-9, Method: Preincubation): inactive; negative
- mutagenic call (Test System: Ames Salmonella typhimurium, Strain/Indicator: TA100, Metabolic Activation: S-9, Method: Standard Plate): inactive; negative
- mutagenic call (Test System: Ames Salmonella typhimurium, Strain/Indicator: TA 1535, Metabolic Activation: None, Method: Preincubation): inactive; negative
- mutagenic call (Test System: Ames Salmonella typhimurium, Strain/Indicator: TA 1535, Metabolic Activation: None, Method: Standard Plate): inactive; negative
- mutagenic call (Test System: Ames Salmonella typhimurium, Strain/Indicator: TA 1535, Metabolic Activation: S-9, Method: Preincubation): inactive; negative
- mutagenic call (Test System: Ames Salmonella typhimurium, Strain/Indicator: TA 1535, Metabolic Activation: S-9, Method: Standard Plate): inactive; negative
- mutagenic call (Test System: Ames Salmonella typhimurium, Strain/Indicator: TA1537, Metabolic Activation: None, Method: Preincubation): inactive; negative
- mutagenic call (Test System: Ames Salmonella typhimurium, Strain/Indicator: TA1537, Metabolic Activation: None, Method: Standard Plate): inactive; negative
- mutagenic call (Test System: Ames Salmonella typhimurium, Strain/Indicator: TA1537, Metabolic Activation: S-9, Method: Preincubation): inactive; negative
- mutagenic call (Test System: Ames Salmonella typhimurium, Strain/Indicator: TA1537, Metabolic Activation: S-9, Method: Standard Plate): inactive; negative
- mutagenic call (Test System: Ames Salmonella typhimurium, Strain/Indicator: TA1538, Metabolic Activation: None, Method: Standard Plate): inactive; negative
- mutagenic call (Test System: Ames Salmonella typhimurium, Strain/Indicator: TA1538, Metabolic Activation: S-9, Method: Standard Plate): inactive; negative

Structure (SMILES): Cc1cc(C)cc(OC(=O)N(C)N=O)c1
- mutagenic call (Test System: E. COLI WP2, Strain/Indicator: WP2, Metabolic Activation: NONE, Method: STANDARD PLATE): active; positive

Structure (SMILES): O=C1CCCCC1
- mutagenic call (Test System: AMES SALMONELLA TYPHIMURIUM, Strain/Indicator: TA98, Metabolic Activation: HAMSTER, LIVER, S-9, AROCLOR 1254, Method: PREINCUBATION): inactive; negative
- mutagenic call (Test System: AMES SALMONELLA TYPHIMURIUM, Strain/Indicator: TA98, Metabolic Activation: NONE, Method: PREINCUBATION): inactive; negative
- mutagenic call (Test System: AMES SALMONELLA TYPHIMURIUM, Strain/Indicator: TA98, Metabolic Activation: RAT, LIVER, S-9, AROCLOR 1254, Method: PREINCUBATION): inactive; negative
- mutagenic call (Test System: AMES SALMONELLA TYPHIMURIUM, Strain/Indicator: TA100, Metabolic Activation: HAMSTER, LIVER, S-9, AROCLOR 1254, Method: PREINCUBATION): inactive; negative
- mutagenic call (Test System: AMES SALMONELLA TYPHIMURIUM, Strain/Indicator: TA100, Metabolic Activation: NONE, Method: PREINCUBATION): inactive; negative
- mutagenic call (Test System: AMES SALMONELLA TYPHIMURIUM, Strain/Indicator: TA100, Metabolic Activation: RAT, LIVER, S-9, AROCLOR 1254, Method: PREINCUBATION): inactive; negative
- mutagenic call (Test System: AMES SALMONELLA TYPHIMURIUM, Strain/Indicator: TA1535, Metabolic Activation: HAMSTER, LIVER, S-9, AROCLOR 1254, Method: PREINCUBATION): inactive; negative
- mutagenic call (Test System: AMES SALMONELLA TYPHIMURIUM, Strain/Indicator: TA1535, Metabolic Activation: NONE, Method: PREINCUBATION): inactive; negative
- mutagenic call (Test System: AMES SALMONELLA TYPHIMURIUM, Strain/Indicator: TA1535, Metabolic Activation: RAT, LIVER, S-9, AROCLOR 1254, Method: PREINCUBATION): inactive; negative
- mutagenic call (Test System: AMES SALMONELLA TYPHIMURIUM, Strain/Indicator: TA1537, Metabolic Activation: HAMSTER, LIVER, S-9, AROCLOR 1254, Method: PREINCUBATION): inactive; negative
- mutagenic call (Test System: AMES SALMONELLA TYPHIMURIUM, Strain/Indicator: TA1537, Metabolic Activation: NONE, Method: PREINCUBATION): inactive; negative
- mutagenic call (Test System: AMES SALMONELLA TYPHIMURIUM, Strain/Indicator: TA1537, Metabolic Activation: RAT, LIVER, S-9, AROCLOR 1254, Method: PREINCUBATION): inactive; negative
- mutagenic call (Test System: Mouse lymphoma, Strain/Indicator: L5178Y (tk+/tk-), Metabolic Activation: None, Method: Suspension/plate): inactive; negative
- mutagenic call (Test System: Mouse lymphoma, Strain/Indicator: L5178Y (tk+/tk-), Metabolic Activation: Rat, Liver, S-9, Aroclor 1254, Method: Suspension/plate): active; positive
